Measured values from article PMC11201061, “Mechanistic Study of Antimicrobial Effectiveness of Cyclic Amphipathic Peptide [R4W4] against Methicillin-Resistant Staphylococcus aureus Clinical Isolates” (Antibiotics, 2024).
Converted amounts (≈) assume the structure as drawn. Where a name gives a salt, the structure may show the parent alone. Read-outs that look alike come from different tables or passages of the source. Where a SMILES comes first, the peptide text is derived from it.

Tests used:
C. difficile 9689 = test: microbe, parasite or virus in culture; format: cell-based, Clostridioides difficile; conditions: for MBC/MIC: C. difficile ATCC 9689, stool isolate
Description: (§1) To determine whether the antibacterial activity of [R4W4] is bacteriostatic or bactericidal against clinical isolates of multidrug-resistant bacterial isolates, MIC and MBC were determined using the microbroth dilution method. Bacteriostatic activity was defined as a ratio of the MBC/MIC greater than four and bactericidal activity as MBC/MIC ratio ≤ 4 [33]. We added aliquots of test samples (256 μg/mL concentration of [R4W4] or vancomycin as a control prepared in TSB) to the first well of microplates. MHB media was added to the remaining wells. Two-fold serial dilutions were performed, starting with the highest drug concentration in well 1, and the dilution process continued. A bacterial aliquot of 1/150 dilution was prepared with a 0.5 McFarland standard solution from an overnight culture of the tested bacteria isolate. Bacteria were added to the microplate and placed into wells with the drug dilutions. The microplates were incubated overnight for 24 h at 37 °C. [R4W4] was synthesized and purified, as reported earlier.

MRSA USA300 [1] = test: microbe, parasite or virus in culture; conditions: for MIC: Staphylococcus aureus
Description: The interaction of [R4W4], melittin, and vancomycin with LTA in the presence of MRSA was determined using a microbroth dilution assay. Two-fold serial dilution was used to achieve a 100 μL final concentration of the antibacterial agents in a 96 microplate well. A 360 μL S. aureus LTA (Sigma Aldrich stock 5 mg/mL) was added to 17.64 mL MHB containing MRSA (5 x 10^5 CFU/mL) to achieve the final concentration of S. aureus LTA 100 μg/mL. Then, 100 μL aliquots of MHB (MRSA (5 × 10^5 CFU/mL) and 100 μg/mL S. aureus LTA) were added to the 96 microtiter wells containing the antibacterial agents. The microplate was incubated overnight at 37 °C to obtain the MICs. Controls were bacteria grown in the presence of LTA alone and in MHB alone.

MRSA LAC USA300 = test: Surface charge neutralization by zeta potential; format: cell-based, Staphylococcus aureus; conditions: for zeta potential of MRSA after treatment: agent at 16 μg/mL (4 × MIC of [R4W4]), HEPES pH 7.4, 150 mM NaCl, 25 °C, mean of triplicate, untreated −31 ± 0.88 mV
Description: Stock cultures of the MRSA strain from −80 °C were inoculated on MHB agar plates at 37 °C overnight. Two isolated colonies were inoculated in 6 mL MHB broth and allowed to grow overnight with shaking at 225 rpm. A 100 µL bacteria aliquot was added to a 5 mL fresh MHB, and the suspension was incubated to grow for 2 h at 37 °C to achieve a final bacteria concentration of ~3 × 10^8 CFU/mL as (A 600 ~0.1). The bacterial suspension was diluted using fresh MHB to 3 × 10^5 CFU/mL. The bacterial suspension was centrifuged at 11,400× g for 10 min and washed twice using 10 mM HEPES buffer, pH 7.4, containing 150 mM NaCl (normal saline).
An amount of 100 µLs of test samples was added to 900 µL of the bacterial aliquots using a positive buffer without test samples.
Meanwhile, the Malvern Zetasizer Nano was set to read samples at 25 °C. The bacterial suspension was dispensed into disposable zeta cells with gold electrodes and allowed to equilibrate for 15 min at 25 °C. The zeta potential value for each sample was calculated from the measured value of electrophoretic mobility using the Smuluchowski equation.

B. subtilis 21332 = test: microbe, parasite or virus in culture; format: cell-based, Bacillus subtilis; conditions: for MBC/MIC: B. subtilis ATCC 21332
Description: as §1

MRSA USA300 [2] = test: Membrane depolarization assay with DisC3(5); format: cell-based, Staphylococcus aureus
Description: Buffer A (5 mM HEPE and 5 mM glucose) and Buffer B (5 mM HEPE, 5 mM glucose, and 0.2 mM EDTA) solutions were prepared and filtered using 0.2 μm filters. Bacteria strains (MRSA and E. coli) from a −80 °C freezer were inoculated on an agar plate overnight. Two to three colonies of each bacteria strain were inoculated in 8 mL Cation-Adjusted Muller-Hinton Broth (CAMHB) and allowed to grow overnight. The overnight grown MRSA or E. coli bacteria was diluted with a fresh CAMHB (1:100) and incubated at 37 °C for 5 h with shaking at 220 rpm. The resulting bacteria cells at the growth phase were centrifuged at 3700× g at 4 °C for 10 min. The bacteria pellets were washed three times with buffer A and then resuspended in buffer A to an OD600nm of 0.05.
On the other hand, E. coli was resuspended in buffer B to an OD600nm of 0.05 to facilitate fluorescence dye DSC5 uptake. Then, 20 mL of each bacteria suspension was mixed with 10 μL of 100 μM dye in a dark place for 45 min. After incubation, potassium chloride was added to the two bacteria suspensions to a final concentration. […] The fluorescence intensity was measured at excitation and emission wavelengths of 622 nm and 670 nm, respectively.

MRSA LAC = test: microbe, parasite or virus in culture; format: cell-based, Staphylococcus aureus; conditions: for MIC: Staphylococcus aureus, MRSA
Description: The effects of cations on the antimicrobial activity of [R4W4] were determined against MRSA using vancomycin as a control. The bacteria aliquots were treated with MHB media containing the final concentration of sodium chloride (NaCl) (150, 75, 37.5, and 18.75 mM), calcium chloride (CaCl2) (8, 4, 2, and 1 mM), and ferric chloride (FeCl3) (1, 4, and 8 µM) in 96 well microplates. The MIC of [R4W4] and vancomycin were determined to determine whether there were changes in the MIC values when treated with different salt concentrations.

N=C(N)NCCC[C@@H]1NC(=O)[C@H](CCCNC(=N)N)NC(=O)[C@H](CCCNC(=N)N)NC(=O)[C@H](Cc2c[nH]c3ccccc23)NC(=O)[C@H](Cc2c[nH]c3ccccc23)NC(=O)[C@H](Cc2c[nH]c3ccccc23)NC(=O)[C@H](Cc2c[nH]c3ccccc23)NC(=O)[C@H](CCCNC(=N)N)NC1=O [[R4W4]] (cyclo(RRRRWWWW))
MBC (C. difficile 9689; 9689, 24 h): 4 mg/L (≈ 2.92 µM) | MIC (C. difficile 9689; 9689, 24 h): 2 mg/L (≈ 1.46 µM) | MBC/MIC (C. difficile 9689): 2 | MIC in the presence of LTA (MRSA USA300 [1]; MRSA USA300, 100 μg/mL S. aureus LTA in MHB, overnight 37 °C, duplicate): 8 mg/L | MIC in the absence of LTA (MRSA USA300 [1]; MRSA USA300, MHB, overnight 37 °C, duplicate): 8 mg/L | concentration required to achieve neutralization of negative surface charge (MRSA LAC USA300; 2 × MIC): 8 µg/mL | zeta potential of MRSA after treatment (MRSA LAC USA300): −8.37 mV | MBC (B. subtilis 21332; 21332, 24 h): 8 mg/L (≈ 5.84 µM) | MIC (B. subtilis 21332; 21332, 24 h): 4 mg/L (≈ 2.92 µM) | MBC/MIC (B. subtilis 21332): 2 | DisC3(5) fluorescence (membrane depolarization) (MRSA USA300 [2]; [R4W4] at 2 × MIC): fluorescence decreases below that of vancomycin and control | DisC3(5) fluorescence (membrane depolarization) (MRSA USA300 [2]; [R4W4] at 16 × MIC): enhanced fluorescence signal that surpassed that of nisin | MIC in the presence of sodium chloride (MRSA LAC; LAC): 6 to 8 mg/L | MIC under normal physiological conditions (MRSA LAC; MRSA LAC, MHB without added salt): 4 µg/mL | MIC in the presence of ferric chloride (MRSA LAC; MRSA LAC, FeCl3 1, 2, 4 and 8 μM): increases proportionally with the concentration of ferric chloride

CN[C@H](CC(C)C)C(=O)N[C@H]1C(=O)N[C@@H](CC(N)=O)C(=O)N[C@H]2C(=O)N[C@H]3C(=O)N[C@H](C(=O)N[C@H](C(=O)O)c4cc(O)cc(O)c4-c4cc3ccc4O)[C@H](O)c3ccc(c(Cl)c3)Oc3cc2cc(c3O[C@@H]2O[C@H](CO)[C@@H](O)[C@H](O)[C@H]2O[C@H]2C[C@](C)(N)[C@H](O)[C@H](C)O2)Oc2ccc(cc2Cl)[C@H]1O [Vancomycin, Vancomycin Hydrochloride, reference compound]
MBC/MIC (C. difficile 9689): 2 | MBC (C. difficile 9689; Clostridioides difficile, ATCC9689): 1 mg/L | MIC (C. difficile 9689; Clostridioides difficile, ATCC9689, 24 h): 0.5 mg/L | MIC (MRSA USA300 [1]; read-out: MIC in the absence of LTA): 2 mg/L | MIC (MRSA USA300 [1]; read-out: MIC in the presence of LTA): 2 mg/L | zeta potential of MRSA after treatment (MRSA LAC USA300): −33.03 mV | MBC/MIC (B. subtilis 21332): 2 | MBC (B. subtilis 21332; Bacillus subtilis, ATCC21332): 0.5 mg/L | MIC (B. subtilis 21332; Bacillus subtilis, ATCC21332, 24 h): 0.25 mg/L | DisC3(5) fluorescence versus control (MRSA USA300 [2]; controls at 100 µg/mL): no significant difference | MIC (MRSA LAC; read-out: MIC in the presence of calcium chloride): 0.75 mg/L | MIC (MRSA LAC; read-out: MIC in the presence of ferric chloride): 0.625 to 1.25 mg/L | MIC (MRSA LAC; read-out: MIC in the presence of sodium chloride): 1 to 2 mg/L | MIC (MRSA LAC; read-out: MIC under normal physiological conditions): 1 mg/L
